Columns and labels:
[1] = Viscosity imparting test in nonaqueous formulation (polymer compound solubility and viscosity); format: physicochemical; conditions: 25° C.
Experimental: With respect to each solvent of propylene glycol and glycerin, polymer compounds shown in Table 5 and Table 6 were added to prepare mixed solutions. Each concentration of the polymer compounds was designed in consideration of the molecular weight and the like. […] Separately, the viscosity of the mixed solution or the solution after the stirring was determined with a micron sample viscometer at 25° C.

[2] = Viscosity measurement of octreotide acetate physiologically active composition (micron sample viscometer); format: physicochemical; conditions: 25° C.
Experimental: The octreotide acetate concentration and the propylene glycol or glycerin concentration were adjusted as shown in Table 3 and Table 4 to prepare a physiologically active composition. The viscosity of the obtained physiologically active composition was measured ten times with a micron sample viscometer (RHEOSENSE INC., Micron Sample-Viscometer/Rheometer-on-a-chip VROCTM), and the mean value was calculated to be shown in Table 3 and Table 4.

Viscosity Avg. ([2]; octreotide acetate 20 / glycerin 80 % by weight)	Viscosity Avg. ([2]; octreotide acetate 20 / propylene glycol 80 % by weight) [cps]	Viscosity Avg. ([2]; octreotide acetate 30 / glycerin 70 % by weight)	Viscosity Avg. ([2]; octreotide acetate 35 / glycerin 65 % by weight)	Viscosity Avg. ([2]; octreotide acetate 40 / glycerin 60 % by weight)	Viscosity Avg. ([2]; octreotide acetate 40 / propylene glycol 60 % by weight)	Viscosity Avg. ([2]; octreotide acetate 50 / glycerin 50 % by weight)	Viscosity Avg. ([2]; octreotide acetate 50 / propylene glycol 50 % by weight)	Viscosity Avg. ([2]; octreotide acetate 60 / glycerin 40 % by weight)	Viscosity Avg. ([2]; octreotide acetate 60 / propylene glycol 40 % by weight)	Viscosity Avg. ([2]; octreotide acetate 70 / propylene glycol 30 % by weight)	Viscosity Avg. ([2]; octreotide acetate 80 / propylene glycol 20 % by weight)	Compound	Viscosity ([1]; glycerin, additive concentration 0.5 % by mass)	Viscosity ([1]; propylene glycol, additive concentration 1.0 % by mass) [mPa · s]
												Protamine	1,442 mPa · s	53
2,900 cps	200	9,000 cps	12,000 cps	15,000 cps	1,600 cps	21,000 cps	5,400 cps	27,000 cps	15,000 cps	45,000 cps	133,000 cps	C[C@@H](O)[C@@H]1NC(=O)[C@H](CCCCN)NC(=O)[C@@H](Cc2c[nH]c3ccccc23)NC(=O)[C@H](Cc2ccccc2)NC(=O)[C@@H](NC(=O)[C@H](N)Cc2ccccc2)CSSC[C@@H](C(=O)N[C@H](CO)[C@@H](C)O)NC1=O [Octreotide acetate]		

Reference: US20130041330A1, “MICRO-NEEDLE DEVICE AND PREPARATION METHOD” (HISAMITSU PHARMACEUTICAL CO., INC., priority 2010, published 2013)
